Measured values taken from US20250332149A1, “PIPERIDINE COMPOUNDS AND PHARMACEUTICAL COMPOSITIONS” (Lumos Pharma, Inc., priority 2024, published 2025).

System: serum growth hormone (GH)
Test: Phase 1 study Part 1: PD, serum GH concentration
Assay type: in vivo, human
Conditions: for serum GH concentration, peak, mean (SD): 1 h post-dose; for serum GH concentration, mean (SD): pre-dose
Description: • Part 1: To evaluate PD (GH response) of the new LUM-201 formulation as capsule (test). • Part 2: To measure PD (GH response) to LUM-201 administered as capsule (test) in fasted versus fed state. PD Results (pt 1): Individual serum growth hormone (GH) concentration time data were obtained for each subject and treatment cohort. […] Following the administration of LUM-201, the serum GH concentration values increased post dose as expected. At pre-dose, mean (SD) serum GH concentration values were 0.2970 (0.7404) ng/mL for Treatment A, 0.2052 (0.3174) ng/mL for Treatment B, 0.5303 (1.354) ng/mL for Treatment C, and 0.1454 (0.1981) ng/mL for Treatment D. The serum GH concentration value peaked at 1 h post-dose for all treatment groups. 17.10 (15.07) ng/mL in Treatment A, 16.55 (16.36) ng/mL in Treatment B, 17.30 (17.05) ng/mL in Treatment C, and 18.01 (14.32) ng/mL in Treatment D. The trend of serum GH concentration changes in all 4 treatment groups was similar, except for the serum GH concentration in Treatment A that approached the peak concentration sooner, relative to the other treatments, at 0.5 h post-dose.

[1] = Part 1, Treatment A: five 18 mg tablets (90 mg), fasted
[2] = Part 1, Treatment B: 85.3 mg whole capsule, fasted
[3] = Part 1, Treatment C: 85.3 mg capsule contents (dry), fasted
[4] = Part 1, Treatment D: 85.3 mg capsule contents in banana puree

CC(C)(N)C(=O)N[C@H](COCc1ccccc1)C(=O)N1CCC2(CC1)CN(S(C)(=O)=O)c1ccccc12 [LUM-201, N-[1(R)-[(1,2-dihydro-1-methanesulfonylspiro[3H-indole-3,4′-piperdin]-yl)carbonyl]-2-(phenylmethyloxy)ethyl]-2-amino-2-methylpropanamide methanesulfonate]
serum GH concentration, peak, mean (SD) [1]: 17.10 (15.07) ng/mL
serum GH concentration, peak, mean (SD) [2]: 16.55 (16.36) ng/mL
serum GH concentration, peak, mean (SD) [3]: 17.30 (17.05) ng/mL
serum GH concentration, peak, mean (SD) [4]: 18.01 (14.32) ng/mL
PD parameters, capsule versus tablets (Part 1, serum GH and serum IGF-1, 4 treatment groups): no observed differences
serum GH concentration, mean (SD) [1]: 0.2970 (0.7404) ng/mL
serum GH concentration, mean (SD) [2]: 0.2052 (0.3174) ng/mL
serum GH concentration, mean (SD) [3]: 0.5303 (1.354) ng/mL
serum GH concentration, mean (SD) [4]: 0.1454 (0.1981) ng/mL
